Counter-ions that a name gives are not always drawn.
Columns and labels:
BxPC-3 cells [1] = experiment: 3D spheroid cytotoxicity, acid phosphatase (APH) assay, BxPC-3; conditions: read-out: IC50 ±S.D. BxPC-3 (3D cytotoxicity); spheroids, 72 h, APH test
Method: (§3) The PDAC cancer spheroids were treated with tested compounds for 72 h, and cell viability was assessed by means of the acid phosphatase (APH) assay (Table 3).
(§4) An APH-modified assay was used for determining cell viability in 3D spheroids, as previously described [61]. Briefly, the pre-seeded spheroids were treated with fresh medium containing the compound to be studied at the appropriate concentration (range 2.5–200 μM). Triplicate cultures were established for each treatment. After 72 h, each well was treated with 100 μL of the assay buffer (0.1 M sodium acetate, 0.1% Triton-X-100, supplemented with ImmunoPure p-nitrophenyl phosphate; Sigma Chemical Co., Ltd.) and, following 3 h of incubation, 10 μL of 1 M NaOH solution was added. […] The mean absorbance for each drug dose was expressed as a percentage of the control untreated well absorbance (T/C) and plotted vs. drug concentration. […] The evaluation was based on means from at least four independent experiments.

PSN-1 cells [2] = experiment: 3D spheroid cytotoxicity, acid phosphatase (APH) assay, PSN-1; conditions: read-out: IC50 ±S.D. PSN-1 (3D cytotoxicity); spheroids, 72 h, APH test
Method: as §3, §4

PSN-1 cells [3] = experiment: 2D cytotoxicity, MTT assay, PSN-1; assay type: cell-based; conditions: Homo sapiens, PSN1, 72 h, read-out: IC50 ±S.D. PSN-1 (2D cytotoxicity)
Method: (§1) All newly synthesized compounds were then screened for their cytotoxic activity against two human PDAC cell lines, namely a KRAS-wild-type PDAC cell line (BxPC-3 cells) and a KRAS-mutant PDAC cell line (PSN-1 cells). […] The cytotoxicity parameters, expressed in terms of IC50 and obtained after 72 h of drug exposure by MTT assay, are listed in the Supplementary Materials (Table S2).
(§2) The growth inhibitory effect on tumor cells was evaluated by means of the MTT assay. Briefly, 3–8 × 10^3 cells/well, dependent upon the growth characteristics of the cell line, were seeded in 96-well microplates in growth medium (100 μL). After 24 h, the medium was removed and replaced with a fresh one containing the compound to be studied at the appropriate concentration. Triplicate cultures were established for each treatment. After 72 h, each well was treated with 10 μL of a 5 mg/mL MTT saline solution, and following 5 h of incubation, 100 μL of a sodium dodecyl sulfate (SDS) solution in HCl 0.01 M was added. After overnight incubation, cell growth inhibition was detected by measuring the absorbance of each well at 570 nm using a Bio-Rad 680 microplate reader. The mean absorbance for each drug dose was expressed as a percentage of the control untreated well absorbance and plotted vs. drug concentration. IC50 values, the drug concentrations that reduce the mean absorbance at 570 nm to 50% of those in the untreated control wells, were calculated by the four-parameter logistic (4-PL) model. The evaluation was based on means from at least four independent experiments.

BxPC-3 cells [4] = experiment: 2D cytotoxicity, MTT assay, BxPC-3; assay type: cell-based; conditions: Homo sapiens, BXPC-3, 72 h, read-out: IC50 ±S.D. BxPC-3 (2D cytotoxicity)
Method: as §1, §2

recombinant human HSP90 = recombinant human HSP90 (Homo sapiens, UniProt P07900); experiment: HSP90 inhibition assay (Transcreener ADP kit); assay type: biochemical
Method: The in vitro inhibitory activity of tested compounds on recombinant human HSP90 was assessed by The Transcreener™ ADP kit (Bellbrook Labs) according to the manufacturer’s protocol. Human recombinant HSP90 protein was incubated with tested compounds in the presence of 250 μM ATP at 37 °C for 30 min, 4°C for 30 min and ATPase activity was stopped via the addition of the stop and detect buffer. Following this, samples were incubated for 1 h at room temperature with the ADP2 Antibody and the ADP Alexa594 Tracer. The fluorescence intensity polarization of samples was measured with a Tecan plate reader (Tecan Infinite® M200). The evaluation was based on means from at least three independent experiments.

recombinant human PDK1 = recombinant human PDK1 (Homo sapiens, UniProt Q15118); experiment: ADP-Glo kinase assay, PDK1
Method: (§5) The ability of tested compounds to inhibit the activity of PDK 1–4 isoforms was primarily assessed in cell-free experiments by a chemioluminescent assay, the ADPGlo™ Kinase Assay kit from Promega (Promega Corporation, Madison, WI, USA).
(§6) The in vitro inhibitory activity of tested compounds on recombinant human PDK1-4 isoforms (Abcam, Cambridge, MA, USA) was evaluated by using the ADPGlo™ Kinase Assay kit from Promega (Promega Corporation, Madison, WI, USA) following the instructions of the manufacturer. […] The reaction was then started by the addition of substrate/ATP for 60 min at room temperature. Subsequently, ADP-Glo™ reagent was added and incubated for 40 min prior to kinase detection reagent addition. After 30 min, the luminescence was measured with a Tecan plate reader (Tecan Infinite® M200). Raw data were normalized to the values of control wells and luminescence values for each drug dose were expressed as a percentage of the luminescence of control untreated wells. […] The evaluation was based on means from at least three independent experiments.

[5] = Body weight changes of LLC-bearing mice; assay type: in vivo; conditions: LLC-bearing C57BL mice, daily dosing; gemcitabine 60 mg kg−1, cisplatin 3 mg kg−1
[6] = test system: murine Lewis Lung Carcinoma (LLC); experiment: In vivo anticancer activity, LLC solid tumor model; conditions: LLC-bearing C57BL mice, daily dosing days 7-14, evaluated day 15; 5i 20 mg kg−1 i.p., gemcitabine 60 mg kg−1, cisplatin 3 mg kg−1
Text: Seven days after tumor inoculation the tumor-bearing mice were randomized into vehicle control and treatment groups.
The LLC was implanted intramuscularly (i.m.) as a 2 × 10^6 cell inoculum into the right hind leg of 8-week-old male and female C57BL mice (24 ± 3 g body weight). After 7 days from tumor implantation (visible tumors), mice were randomly divided into 4 groups (8 animals per group) and subjected to daily i.p. administration. […] At day 15, animals were sacrificed, the legs were amputated at the proximal end of the femur, and the inhibition of tumor growth was determined from the difference in the weights of the tumor-bearing leg and the healthy leg of the animals, expressed as a percentage referenced to the control animals. Body weight was measured at day 0 and from day 7 onwards every 2 days and was taken as a parameter for systemic toxicity. All presented values are the means ± SD of no less than three measurements.

PSN-1 cells [7] = experiment: ROS production (CM-H2DCFDA); assay type: cell-based, human; conditions: 5 µM test compounds, antimycin 3 µM as positive control
Method: Consistently, tested compounds, although to different extents, were effective in reducing total cellular sulfhydryl contents in PSN-1-treated cells (Figure 9B).
The production of ROS was measured in PSN-1 cells (10^4 per well) grown for 24 h in a 96-well plate in RPMI medium without phenol red (Sigma Aldrich, Germany). Cells were then washed with PBS and loaded with 10 μM 5-(and-6)-chloromethyl-2′,7′-dichlorodihydrofluorescein diacetate acetylester (CM–H2DCFDA) (Molecular Probes-Invitrogen, Eugene, OR, USA) for 45 min, in the dark. Afterward, cells were washed with PBS and incubated with tested compounds. Fluorescence increase was estimated utilizing the wavelengths of 485 nm (excitation) and 527 nm (emission) in a VICTOR X3 (PerkinElmer, USA) plate reader. Antimycin (3 μM, Sigma Aldrich), a potent inhibitor of Complex III in the electron transport chain, was used as the positive control.

PSN-1 cells [8] = experiment: Mitochondrial membrane potential (Mito-ID kit); assay type: cell-based, human; conditions: IC50 concentrations
Method: The ΔΨ was assayed using the Mito-ID® Membrane Potential Kit according to the manufacturer’s instructions (Enzo Life Sciences, Farmingdale, NY, USA) as previously described. Briefly, PSN-1 cells (8 × 10^3 per well) were seeded in 96-well plates; after 24 h, cells were washed with PBS and loaded with Mito-ID Detection Reagent for 30 min at 37 °C in the dark. Afterward, cells were incubated with tested compounds for 60 min. CCCP (Carbonyl cyanide 3-chlorophenyl-hydrazone) was used as the positive control. Fluorescence intensity was estimated using a VICTOR X3 (PerkinElmer, Waltham, MA, USA) plate reader at 490 (excitation) and 590 nm (emission).

recombinant human PDK4 = recombinant human PDK4 (Homo sapiens, UniProt Q16654); experiment: ADP-Glo kinase assay, PDK4; conditions: 1.5 µM compound
Method: as §5, §6

[9] = 72 h, MTT test, KRAS-mutant PSN-1
[10] = 72 h, MTT test, KRAS-wild-type BxPC-3

recombinant human PDK1, sequence (Q15118 29-436): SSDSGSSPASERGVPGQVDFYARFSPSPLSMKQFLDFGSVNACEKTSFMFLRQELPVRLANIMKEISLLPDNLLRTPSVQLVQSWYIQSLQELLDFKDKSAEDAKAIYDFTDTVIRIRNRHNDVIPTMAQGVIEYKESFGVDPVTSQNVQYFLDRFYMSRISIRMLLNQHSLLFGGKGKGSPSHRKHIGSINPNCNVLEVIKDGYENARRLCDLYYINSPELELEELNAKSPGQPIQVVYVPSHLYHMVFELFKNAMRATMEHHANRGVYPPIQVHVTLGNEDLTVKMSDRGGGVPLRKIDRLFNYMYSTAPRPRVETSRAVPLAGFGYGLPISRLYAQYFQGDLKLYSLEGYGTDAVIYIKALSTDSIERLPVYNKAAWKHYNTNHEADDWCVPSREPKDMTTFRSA
recombinant human PDK4, sequence (Q16654 whole entry): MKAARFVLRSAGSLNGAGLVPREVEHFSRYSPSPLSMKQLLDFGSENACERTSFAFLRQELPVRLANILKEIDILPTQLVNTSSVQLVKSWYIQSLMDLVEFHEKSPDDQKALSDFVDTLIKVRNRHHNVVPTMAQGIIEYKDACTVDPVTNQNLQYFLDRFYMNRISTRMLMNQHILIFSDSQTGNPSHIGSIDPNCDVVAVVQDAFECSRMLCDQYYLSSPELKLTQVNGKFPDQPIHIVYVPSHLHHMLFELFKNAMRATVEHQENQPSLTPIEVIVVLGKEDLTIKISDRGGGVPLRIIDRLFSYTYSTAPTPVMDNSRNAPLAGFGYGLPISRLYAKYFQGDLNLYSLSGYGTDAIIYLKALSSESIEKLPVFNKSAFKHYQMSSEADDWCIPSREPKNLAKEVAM

Row | SMILES | melting point [°C] | IC50 (PSN-1 cells [3]; [9]) [µM] | IC50 (BxPC-3 cells [4]; [10]) [µM] | other results
1 | Cn1cc(-c2nnc(N)nc2-c2cn(C)c3ccc(F)cc23)c2cc(F)ccc21 [5g] | 236.5 |  |  | IC50 (BxPC-3 cells [1]): 19.5 ± 2.1 µM; IC50 (PSN-1 cells [2]): 5.8 ± 0.8 µM
2 | Cn1cc(-c2nnc(N)nc2-c2c[nH]c3ccc(F)cc23)c2ccccc21 [6v] | 295.8 | 0.2 ± 0.03 | 0.1 ± 0.02 | 
3 | Cn1cc(-c2nc(N)nnc2-c2c[nH]c3ccccc23)c2cc(F)ccc21 [5n] | 254.3 |  |  | 
4 | COc1ccc2[nH]cc(-c3nc(N)nnc3-c3cn(C)c4ccc(Br)cc34)c2c1 [6aa] | 241.8 |  |  | 
5 | COc1ccc2c(c1)c(-c1nnc(N)nc1-c1cn(C)c3ccc(OC)cc13)cn2C [5f] | 199.5 |  |  | 
6 | Nc1nnc(-c2c[nH]c3ccccc23)c(-c2c[nH]c3ccccc23)n1 [5a] | 288.2 |  |  | 
7 | Cn1cc(-c2nc(N)nnc2-c2c[nH]c3ccccc23)c2ccccc21 [5m] | 246.6 |  |  | 
8 | COc1ccc2[nH]cc(-c3nc(N)nnc3-c3cn(C)c4ccccc34)c2c1 [6z] | 243.3 |  |  | 
9 | COc1ccc2c(c1)c(-c1nc(N)nnc1-c1c[nH]c3ccccc13)cn2C [5p] | 288.4 |  |  | 
10 | Cn1cc(-c2nnc(N)nc2-c2c[nH]c3ccc(F)cc23)c2cc(Br)ccc21 [6x] | 270.2 | 0.3 ± 0.04 | 0.3 ± 0.1 | 
11 | Nc1nnc(-c2c[nH]c3ccc(F)cc23)c(-c2c[nH]c3ccc(F)cc23)n1 [5c] | 178.1 |  |  | 
12 | Cn1cc(-c2nnc(N)nc2-c2cn(C)c3ccccc23)c2ccccc21 [5e] | 274.4 |  |  | 
13 | Cn1cc(-c2nc(N)nnc2-c2c[nH]c3ccc(Br)cc23)c2cc(F)ccc21 [5t] | 266.9 | 0.4 ± 0.1 | 1.4 ± 0.2 | 
14 | Cn1cc(-c2nc(N)nnc2-c2c[nH]c3ccccc23)c2cc(Br)ccc21 [5o] | 271 | 0.5 ± 0.1 | 0.2 ± 0.03 | 
15 | Cn1cc(-c2nc(N)nnc2-c2c[nH]c3ccc(Br)cc23)c2cc(Br)ccc21 [5r] | 239 |  |  | 
16 | Cn1cc(-c2nc(N)nnc2-c2c[nH]c3ccc(F)cc23)c2ccccc21 [5v] | 285.9 | 0.2 ± 0.04 | 0.2 ± 0.03 | 
17 | COc1ccc2[nH]cc(-c3nc(N)nnc3-c3cn(C)c4ccc(OC)cc34)c2c1 [6y] | 263.3 | 0.6 ± 0.04 | 0.3 ± 0.1 | 
18 | Cn1cc(-c2nnc(N)nc2-c2cn(C)c3ccc(Br)cc23)c2ccccc21 [5j] | 257.3 | 0.4 ± 0.1 | 0.1 ± 0.04 | IC50 (BxPC-3 cells [1]): 16.7 ± 2 µM; IC50 (PSN-1 cells [2]): 10.4 ± 1.6 µM

Row | SMILES | melting point [°C] | IC50 (PSN-1 cells [3]; [9]) [µM] | IC50 (BxPC-3 cells [4]; [10]) [µM] | other results
19 | COc1ccc2[nH]cc(-c3nnc(N)nc3-c3cn(C)c4ccccc34)c2c1 [5z] | 249.4 |  |  | 
20 | COc1ccc2[nH]cc(-c3nnc(N)nc3-c3cn(C)c4ccc(OC)cc34)c2c1 [5y] | 205.5 |  |  | 
21 | Cn1cc(-c2nnc(N)nc2-c2c[nH]c3ccc(Br)cc23)c2cc(F)ccc21 [6t] | 314.3 |  |  | 
22 | Cn1cc(-c2nc(N)nnc2-c2c[nH]c3ccc(F)cc23)c2cc(F)ccc21 [6u] | 259.5 |  |  | 
23 | Cn1cc(-c2nnc(N)nc2-c2c[nH]c3ccccc23)c2cc(Br)ccc21 [6o] | 291 | 0.4 ± 0.04 | 0.3 ± 0.03 | 
24 | Cn1cc(-c2nc(N)nnc2-c2c[nH]c3ccc(F)cc23)c2cc(Br)ccc21 [5x] | 267.6 | 0.3 ± 0.1 | 0.2 ± 0.04 | IC50 (recombinant human HSP90): > 1.5 µM; IC50 (recombinant human PDK1): 0.7 µM
25 | Cn1cc(-c2nnc(N)nc2-c2c[nH]c3ccc(Br)cc23)c2cc(Br)ccc21 [6r] | 282.4 |  |  | 
26 | Nc1ccn([C@@H]2O[C@H](CO)[C@@H](O)C2(F)F)c(=O)n1 [Gemcitabine, gemcitabine hydrochloride, reference compound] |  | 0.1 ± 0.04 | 0.02 ± 0.003 | IC50 (BxPC-3 cells [1]): 103 ± 6.3 µM; body weight loss [5]: ~ 20%; IC50 (PSN-1 cells [2]): 160 ± 5.6 µM; reduction in tumor growth compared to the control group [6]: about 80%
27 | COc1ccc2c(c1)c(-c1nnc(N)nc1-c1c[nH]c3ccc(Br)cc13)cn2C [6s] | 207.7 |  |  | IC50 (BxPC-3 cells [1]): 29.2 ± 1.4 µM; decrease of HSP90 catalytic activity (recombinant human HSP90; 1.5 µM compound (equivalent doses)): 60–80%; ROS basal level production / hydrogen peroxide formation (PSN-1 cells [7]): increase in the ROS basal level production; percentage of cells with hypopolarized mitochondrial membrane potential (in words) (PSN-1 cells [8]): significantly increased; IC50 (recombinant human PDK1): 0.09 ± 0.04 µM; effect on enzymatic activity of PDK1 (recombinant human PDK1; 1.5 µM compound, 30 min preincubation): totally suppressed; IC50 (PSN-1 cells [2]): 22.3 ± 2.3 µM; effect on PDK4 activity (ATP consumption) (recombinant human PDK4): completely blocked
28 | Nc1nnc(-c2c[nH]c3ccc(Br)cc23)c(-c2c[nH]c3ccc(Br)cc23)n1 [5d] | 208.2 | 0.3 ± 0.04 | 0.4 ± 0.1 | 
29 | Cn1cc(-c2nnc(N)nc2-c2c[nH]c3ccccc23)c2ccccc21 [6m] | 311.3 |  |  | 
30 | O=C(c1ccccc1)C(Cl)Cl [DAP, 2,2-dichloroacetophenone, reference compound] |  |  |  | IC50 (BxPC-3 cells [1]): 87.4 ± 8.9 µM; IC50 (PSN-1 cells [3]): 10.2 ± 1.6 µM; IC50 (BxPC-3 cells [4]): 1.06 ± 0.9 µM; IC50 (recombinant human PDK1): > 100 µM; IC50 (PSN-1 cells [2]): 78.2 ± 6.8 µM
31 | COc1ccc2c(c1)c(-c1nnc(N)nc1-c1c[nH]c3ccccc13)cn2C [6p] | 279.6 |  |  | 
32 | COc1ccc2c(c1)c(-c1nnc(N)nc1-c1cn(C)c3ccc(F)cc13)cn2C [6k] | 251.2 |  |  | IC50 (BxPC-3 cells [1]): 22.3 ± 2.6 µM; IC50 (PSN-1 cells [2]): 9.4 ± 0.2 µM
33 | N.N.[Cl][Pt][Cl] [cisplatin] |  |  |  | body weight loss [5]: ~ 20%; reduction in tumor growth compared to the control group [6]: ~ 84%
34 | O=C(O)C(Cl)Cl [DCA, Dichloroacetic acid, reference compound] |  |  |  | IC50 (BxPC-3 cells [1]): > 1000 µM; IC50 (PSN-1 cells [2]): > 1000 µM
35 | COc1ccc2[nH]cc(-c3nnc(N)nc3-c3cn(C)c4ccc(Br)cc34)c2c1 [5aa] | 267.8 |  |  | 
